The compounds below were run against T1, human PAR-2 (hPAR-2) receptor expressed in HEK-293 T cells in an endogenous manner (Homo sapiens, UniProt P55085) (assay: In vitro human PAR-2 functional antagonist activity using calcium assays (Fluo4AM, FLIPR Tetra)). Settings: HEK-293 T cells stimulated by an EC80 of the 2-Furoyl-LIGRLO-NH2 peptide after 10 min incubation with compound; 20 concentrations, duplicate, two independent experiments.
T1 construct: human PAR-2 (hPAR-2) receptor expressed in HEK-293 T cells in an endogenous manner; endogenous in cells; host or cells: HEK-293 T cells
T1 sequence (P55085 26-397): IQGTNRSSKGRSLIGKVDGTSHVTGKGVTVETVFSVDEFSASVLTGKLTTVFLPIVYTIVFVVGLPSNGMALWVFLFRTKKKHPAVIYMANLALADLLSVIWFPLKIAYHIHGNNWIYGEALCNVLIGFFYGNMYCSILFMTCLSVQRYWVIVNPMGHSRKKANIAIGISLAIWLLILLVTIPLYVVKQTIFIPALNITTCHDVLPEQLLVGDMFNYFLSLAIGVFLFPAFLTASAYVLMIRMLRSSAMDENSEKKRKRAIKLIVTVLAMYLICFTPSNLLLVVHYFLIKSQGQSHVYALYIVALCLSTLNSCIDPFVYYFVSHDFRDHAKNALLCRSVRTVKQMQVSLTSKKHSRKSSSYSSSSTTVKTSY
Format: cell-based
Protocol: In vitro human PAR-2 functional antagonist activity using calcium assays
Examples of the present invention were tested successively for their agonist and antagonist activities on human PAR-2 (hPAR-2) receptor expressed in HEK-293 T cells in an endogenous manner. Compounds exert agonist activity if, by themselves in absence of the 2-Furoyl-LIGRLO-NH2 peptide (selective hPAR-2 agonist), they activate PAR-2; they exert antagonist activity if they decrease the action of the 2-Furoyl-LIGRLO-NH2 peptide on the receptor. The assay used to determine compound activity is based on calcium measurement.
Cell Culture: HEK-293 T cells were maintained in Dulbecco's Modified Eagle's Medium supplemented with 10% Foetal Calf Serum, 1% Penicillin/Streptomycin at 37° C./5% CO2. Flasks for tests (F75) are seeded with 6e+06 cells 24 h before the experiment at 37° C./5% CO2.
Calcium assay: Receptor activity was detected by changes in intracellular calcium measured using the fluorescent Ca^2+ sensitive dye, Fluo4AM (Molecular Probes).
The day of the assay, medium was replaced by assay buffer (HBSS 1× (Gibco 14175-053), Hepes 20 mM, MgSO4-7H2O 1 mM, Na2CO3 3.3 mM, CaCl2-2H2O 1.3 mM, 0.5% BSA, Probenecid 2.5 mM, 0.1 mg/mL Pluronic Acid) and complemented with 1 μM Fluo4AM and cells were incubated during 1:30 h at 37° C.
Cells were then detached, resuspended in assay buffer and seeded in 384 wells, transparent-flat bottom black walled plates (2e+04 cells per well). Plates were incubated at +22° C. for 20 min. Compounds stock solutions were prepared in 100% DMSO and dilutions in test buffer were carried out in polypropylene plates with a digital dispenser (D300e, Tecan). Compounds were added to the cells and intracellular Ca^2+ measurements were collected at the same time on FLIPR Tetra® (Molecular Devices) with specific filters (Exc: 470-495 nm/Em: 515-575 nm).
Agonist and antagonist activities of compounds were consecutively evaluated on the same cell plate. Agonist activity was first measured after 10 min incubation with the compound alone. Then, cells were stimulated by an EC80 of the 2-Furoyl-LIGRLO-NH2 peptide and fluorescence was recorded for an additional 5 min. EC80 of the 2-Furoyl-LIGRLO-NH2 peptide was the concentration giving 80% of the maximal 2-Furoyl-LIGRLO-NH2 response. Agonist activities are evaluated in comparison to basal signals evoked by assay buffer or maximal 2-Furoyl-LIGRLO-NH2 response. […] Antagonist activities are evaluated in comparison to basal signals evoked by assay buffer or EC80 of 2-Furoyl-LIGRLO-NH2 alone.

Row | SMILES | IC50
1 | CC(C)(C)n1cc(-c2ccc(Cl)c(F)c2)c2ccc(C(=O)N3CCC4(CC3)NC(=O)NC4=O)nc21 [Example 24, 8-(1-(tert-butyl)-3-(4-chloro-3-fluorophenyl)-1H-pyrrolo[2,3-b]pyridine-6-carbonyl)-1,3,8-triazaspiro[4.5]decane-2,4-dione] | 20 to 10000 nM
2 | Cc1cc(N2CCN(C(=O)c3ccc4c(-c5ccc(Cl)c(F)c5)cn(C(C)(C)C)c4n3)C(C)(C)C2)nc(C)c1C(=O)O [Example 26, 6-(4-(1-(tert-butyl)-3-(4-chloro-3-fluorophenyl)-1H-pyrrolo[2,3-b]pyridine-6-carbonyl)-3,3-dimethylpiperazin-1-yl)-2,4-dimethylnicotinic acid] | < 20 nM
3 | COc1ccc(Cn2cc(-c3ccc(Cl)c(F)c3)c3ccc(C(=O)N4CCNC(=O)C4(C)C)nc32)cc1 [Example 27, 4-(3-(4-chloro-3-fluorophenyl)-1-(4-methoxybenzyl)-1H-pyrrolo[2,3-b]pyridine-6-carbonyl)-3,3-dimethylpiperazin-2-one] | 20 to 10000 nM
4 | COC1CC(n2cc(-c3ccc(Cl)c(F)c3)c3ccc(C(=O)N4CCNC(=O)C4(C)C)nc32)C1 (stereo not drawn) [Example 28, 4-(3-(4-chloro-3-fluorophenyl)-1-(3-methoxycyclobutyl)-1H-pyrrolo[2,3-b]pyridine-6-carbonyl)-3,3-dimethylpiperazin-2-one] | < 20 nM
5 | CC(C)Cn1cc(-c2ccc(Cl)c(F)c2)c2ccc(C(=O)N3CCNC(=O)C3(C)C)nc21 [Example 29, 4-(3-(4-chloro-3-fluorophenyl)-1-isobutyl-1H-pyrrolo[2,3-b]pyridine-6-carbonyl)-3,3-dimethylpiperazin-2-one] | < 20 nM
6 | CC1(C)C(=O)NCCN1C(=O)c1ccc2c(-c3ccc(Cl)c(F)c3)cn(C3CCOCC3)c2n1 [Example 30, 4-(3-(4-chloro-3-fluorophenyl)-1-(tetrahydro-2H-pyran-4-yl)-1H-pyrrolo[2,3-b]pyridine-6-carbonyl)-3,3-dimethylpiperazin-2-one] | 20 to 10000 nM
7 | CC1(C)C(=O)NCCN1C(=O)c1ccc2c(-c3ccc(Cl)c(F)c3)cn(CC(F)(F)F)c2n1 [Example 31, 4-(3-(4-chloro-3-fluorophenyl)-1-(2,2,2-trifluoroethyl)-1H-pyrrolo[2,3-b]pyridine-6-carbonyl)-3,3-dimethylpiperazin-2-one] | 20 to 10000 nM
8 | O=C(c1ccc2c(-c3ccc(Cl)c(F)c3)cn(CC(F)(F)F)c2n1)N1CCCOCC1 [Example 32, (3-(4-chloro-3-fluorophenyl)-1-(2,2,2-trifluoroethyl)-1H-pyrrolo[2,3-b]pyridin-6-yl)(1,4-oxazepan-4-yl)methanone] | > 10000 nM
9 | O=C(c1ccc2c(-c3ccc(Cl)c(F)c3)cn(CC(F)(F)F)c2n1)N1CC2CCC(C1)O2 [Example 33, (8-oxa-3-azabicyclo[3.2.1]octan-3-yl)(3-(4-chloro-3-fluorophenyl)-1-(2,2,2-trifluoroethyl)-1H-pyrrolo[2,3-b]pyridin-6-yl)methanone] | > 10000 nM
10 | Cn1cc(-c2ccc(Cl)c(F)c2)c2ccc(C(=O)N3CCNC(=O)C3(C)C)nc21 [Example 34, 4-(3-(4-chloro-3-fluorophenyl)-1-methyl-1H-pyrrolo[2,3-b]pyridine-6-carbonyl)-3,3-dimethylpiperazin-2-one] | 20 to 10000 nM
11 | CC1(C)C(=O)NCCN1C(=O)c1ccc2c(-c3ccc(Cl)c(F)c3)cn(CC3CC3)c2n1 [Example 35, 4-(3-(4-chloro-3-fluorophenyl)-1-(cyclopropylmethyl)-1H-pyrrolo[2,3-b]pyridine-6-carbonyl)-3,3-dimethylpiperazin-2-one] | < 20 nM
12 | Cc1c(-c2ccc(Cl)c(F)c2)c2ccc(C(=O)N3CCNC(=O)C3(C)C)nc2n1CC(C)C [Example 38, 4-(3-(4-chloro-3-fluorophenyl)-1-isobutyl-2-methyl-1H-pyrrolo[2,3-b]pyridine-6-carbonyl)-3,3-dimethylpiperazin-2-one] | < 20 nM
13 | CC1(C)C(=O)NCCN1C(=O)c1ccc2c(-c3ccc(Cl)c(F)c3)cn(CCOCC(F)(F)F)c2n1 [Example 39, 4-(3-(4-chloro-3-fluorophenyl)-1-(2-(2,2,2-trifluoroethoxy)ethyl)-1H-pyrrolo[2,3-b]pyridine-6-carbonyl)-3,3-dimethylpiperazin-2-one] | 20 to 10000 nM
14 | CC1(C)C(=O)NCCN1C(=O)c1ccc2c(-c3ccc(Cl)c(F)c3)cn(CCn3cncn3)c2n1 [Example 40, 4-(1-(2-(1H-1,2,4-triazol-1-yl)ethyl)-3-(4-chloro-3-fluorophenyl)-1H-pyrrolo[2,3-b]pyridine-6-carbonyl)-3,3-dimethylpiperazin-2-one] | 20 to 10000 nM
15 | CC1(C)C(=O)NCCN1C(=O)c1ccc2c(-c3ccc(Cl)c(F)c3)cn(CCN3CCCC3=O)c2n1 [Example 41, 4-(3-(4-chloro-3-fluorophenyl)-1-(2-(2-oxopyrrolidin-1-yl)ethyl)-1H-pyrrolo[2,3-b]pyridine-6-carbonyl)-3,3-dimethylpiperazin-2-one] | 20 to 10000 nM
16 | CCOCCn1cc(-c2ccc(Cl)c(F)c2)c2ccc(C(=O)N3CCNC(=O)C3(C)C)nc21 [Example 42, 4-(3-(4-chloro-3-fluorophenyl)-1-(2-ethoxyethyl)-1H-pyrrolo[2,3-b]pyridine-6-carbonyl)-3,3-dimethylpiperazin-2-one] | 20 to 10000 nM
17 | CC(C)Cn1cc(-c2cccc(Cl)c2)c2ccc(C(=O)N3CCNC(=O)C3(C)C)nc21 [Example 50, 4-[3-(3-chlorophenyl)-1-isobutyl-pyrrolo[2,3-b]pyridine-6-carbonyl]-3,3-dimethyl-piperazin-2-one] | 20 to 10000 nM
18 | CC(C)Cn1cc(-c2ccccc2Cl)c2ccc(C(=O)N3CCNC(=O)C3(C)C)nc21 [Example 53, 4-[3-(2-chlorophenyl)-1-isobutyl-pyrrolo[2,3-b]pyridine-6-carbonyl]-3,3-dimethyl-piperazin-2-one] | 20 to 10000 nM
19 | CC(C)Cn1cc(-c2ccc(Cl)cc2)c2ccc(C(=O)N3CCNC(=O)C3(C)C)nc21 [Example 54, 4-[3-(4-chlorophenyl)-1-isobutyl-pyrrolo[2,3-b]pyridine-6-carbonyl]-3,3-dimethyl-piperazin-2-one] | 20 to 10000 nM
20 | COC(=O)c1c(C)cc(N2CCN(C(=O)c3ccc4c(n3)c(C(C)(C)C)nn4-c3ccc(Cl)c(F)c3)C(C)(C)C2)nc1C [Example 58, methyl 6-(4-(3-(tert-butyl)-1-(4-chloro-3-fluorophenyl)-1H-pyrazolo[4,3-b]pyridine-5-carbonyl)-3,3-dimethylpiperazin-1-yl)-2,4-dimethylnicotinate] | > 10000 nM
21 | Cc1cc(N2CCN(C(=O)c3ccc4c(n3)c(C(C)(C)C)nn4-c3ccc(Cl)c(F)c3)C(C)(C)C2)nc(C)c1C(=O)O [Example 59, 6-(4-(3-(tert-butyl)-1-(4-chloro-3-fluorophenyl)-1H-pyrazolo[4,3-b]pyridine-5-carbonyl)-3,3-dimethylpiperazin-1-yl)-2,4-dimethylnicotinic acid] | < 20 nM
22 | CC1(C)C(=O)NCCN1C(=O)c1ccc2c(-c3ccc(Cl)c(F)c3)cn(CCn3cccn3)c2n1 [Example 61, 4-(1-(2-(1H-pyrazol-1-yl)ethyl)-3-(4-chloro-3-fluorophenyl)-1H-pyrrolo[2,3-b]pyridine-6-carbonyl)-3,3-dimethylpiperazin-2-one] | 20 to 10000 nM
23 | CC(C)Cc1nn(-c2ccc(Cl)c(F)c2)c2ccc(C(=O)N3CCNC(=O)C3(C)C)nc12 [Example 62, 4-(1-(4-chloro-3-fluorophenyl)-3-isobutyl-1H-pyrazolo[4,3-b]pyridine-5-carbonyl)-3,3-dimethylpiperazin-2-one] | 20 to 10000 nM
24 | CC(C)Cc1nn(-c2ccc(Cl)c(F)c2)c2ccc(C(=O)N3CCN(C)C(=O)C3)nc12 [Example 63, 4-(1-(4-chloro-3-fluorophenyl)-3-isobutyl-1H-pyrazolo[4,3-b]pyridine-5-carbonyl)-1-methylpiperazin-2-one] | > 10000 nM

From patent publication US20240066027A1 (DOMAIN THERAPEUTICS, priority 2020, published 2024)
